The results in this text go back to patent US20240175863A1, “COMPOSITIONS AND METHODS FOR MONITORING ENPP1 ACTIVITY” (The Regents of University of Californa, priority 2021, published 2024).

The test system of series [1] is cardiac fibroblasts. The series is described as follows: myocyte conditioned medium transferred to cardiac fibroblasts, cell death (substance added to cardiomyocytes). In kind it is cell-based, mouse. Conditions: for cardiac fibroblast cell death by conditioned medium of cardiomyocytes treated with AMP plus inhibitor: inhibitor added to cardiomyocytes at the time of addition of AMP; for cardiac fibroblast cell death by conditioned medium of cardiomyocytes treated with the substance alone: conditioned medium collected after 24 hours.

For series [2], the system named is cardiac fibroblasts. The series is described as follows: direct treatment of cardiac fibroblasts with metabolites or inhibitors, cell death and rescue. In kind it is cell-based, mouse.
Series [3] deals with ENPP1 over-expressing cardiac fibroblasts. The series is described as follows: co-culture of ENPP1 over-expressing cardiac fibroblasts with rodent ventricular cardiomyocytes plus ATP. In kind it is cell-based, mouse.
Series [4] concerns cardiac fibroblasts. The series is described as follows: rescue of cardiac fibroblast cell death induced by ENPP1+ATP myocyte conditioned medium (substance added to fibroblasts). The format is cell-based, mouse. Conditions: for cell death of cardiac fibroblasts treated with ENPP1+ATP myocyte conditioned medium in presence of the substance: substance added to cardiac fibroblasts. The text has this: Unable to readily identity the pro-apoptotic metabolites, the studies sought alternative physiologic principles of approaching the problem. The data has consistently shown that the ENPP1+ATP myocyte conditioned medium caused death of a wide range of non-myocyte cells, but that myocytes themselves are not affected. This could be possibly secondary to a specific receptor that is present in non-myocytes and not in myocytes. However, as non-myocyte cells of different lineages are affected, it was hypothesized that the ability of myocytes to be immune to the conditioned medium likely reflects an inherent cellular property of myocytes that distinguishes itself from that in non-myocyte cells tested by us. As non-myocytes are proliferative and myocytes are non-proliferative, it was hypothesized that the ability to cycle was making the non-myocytes susceptible to the metabolites secreted by the myocyte. To determine whether this was true, the studies harvested primary cardiac fibroblasts and induced cell cycle arrest of freshly harvested cardiac fibroblasts by irradiating them.
It also provided an obvious explanation as to why non-proliferative myocytes are immune to the effects of the metabolite(s). A nucleotide balance between the content of purines and pyrimidines available to cycling cells is critical to avoid genotoxic stress and maintain genomic stability. It was hypothesized that disruption of the nucleotide biosynthetic pathways in non-myocyte cells and an imbalance of purine versus pyrimidine nucleotides was inducing genotoxic stress and initiating a DNA damage response in proliferating non-myocytes. The studies treated cardiac fibroblasts with ENPP1+ATP myocyte conditioned medium for 24 hours and measured the content of nucleoside monophosphate and nucleoside triphosphates in treated cardiac fibroblasts by LC/MS-MS. […] To determine whether this is true, the studies attempted to rescue cell death of cardiac fibroblasts by adding uridine or deoxycytidine to the ENPP1+ATP myocyte conditioned medium. Cardiac fibroblasts were treated with the ENPP1+ATP myocyte conditioned medium but uridine or deoxycytidine or both were added to the cardiac fibroblasts at the time of addition of ENPP1+ATP myocyte conditioned medium (FIG. 5C). […] Deoxycytidine serves as a precursor of dCTP synthesis via the enzyme deoxycytidine kinase.
Pyrimidine biosynthesis occurs via a sequence of well-regulated steps (FIG. 5H), where carbamoyl phosphate is converted to carbamoyl aspartate and then to dihydroorotate. Dihydroorotate dehydrogenase (DHODH) then converts dihydroorotate to the pyrimidine orotate. In the presence of phosphoribosyl pyrophosphate (PRPP), orotate is converted by phosphoribosyl transferase activity of UMP synthase to orotidine monophosphate (OMP) and then decarboxylated by OMP decarboxylase activity of UMP synthase to uridine monophosphate (UMP). To determine which steps in pyrimidine biosynthesis are affected in cycling non-myocytes, the studies treated cardiac fibroblasts with ENPP1+ATP myocyte conditioned medium and 24 hours later harvested the cells and subjected the cardiac fibroblasts to mass spectrometry to determine metabolites in the pyrimidine biosynthesis pathway. […] As orotate levels were increased but orotidine levels decreased in cardiac fibroblasts treated with ENPP1+ATP myocyte conditioned medium, it was hypothesized that inhibition was occurring at the OMP synthesis step from orotate and PRPP (orotate phosphoribosyl transferase). […]

The test system of series [5] is primary mouse embryonic fibroblasts (mEF). The series is described as follows: mouse embryonic fibroblasts treated with ENPP1+ATP myocyte conditioned medium, cell death. In kind it is cell-based.
In series [6] the test system is gamma H2A.X and p53Ser15 phosphorylation in non-myocyte cells. In words: immunostaining of DNA damage response in non-myocyte cells of injured hearts. The format is in vivo, mouse. Conditions: hearts of myricetin treated animals.
The subject of series [7] is pyrimidine biosynthesis. In words: metabolomic analysis of hearts and serum after cardiac injury. In kind it is in vivo, mouse.
Series [8] addresses T1, ENPP1 (UniProt P22413).
T1 sequence (P22413 1-925): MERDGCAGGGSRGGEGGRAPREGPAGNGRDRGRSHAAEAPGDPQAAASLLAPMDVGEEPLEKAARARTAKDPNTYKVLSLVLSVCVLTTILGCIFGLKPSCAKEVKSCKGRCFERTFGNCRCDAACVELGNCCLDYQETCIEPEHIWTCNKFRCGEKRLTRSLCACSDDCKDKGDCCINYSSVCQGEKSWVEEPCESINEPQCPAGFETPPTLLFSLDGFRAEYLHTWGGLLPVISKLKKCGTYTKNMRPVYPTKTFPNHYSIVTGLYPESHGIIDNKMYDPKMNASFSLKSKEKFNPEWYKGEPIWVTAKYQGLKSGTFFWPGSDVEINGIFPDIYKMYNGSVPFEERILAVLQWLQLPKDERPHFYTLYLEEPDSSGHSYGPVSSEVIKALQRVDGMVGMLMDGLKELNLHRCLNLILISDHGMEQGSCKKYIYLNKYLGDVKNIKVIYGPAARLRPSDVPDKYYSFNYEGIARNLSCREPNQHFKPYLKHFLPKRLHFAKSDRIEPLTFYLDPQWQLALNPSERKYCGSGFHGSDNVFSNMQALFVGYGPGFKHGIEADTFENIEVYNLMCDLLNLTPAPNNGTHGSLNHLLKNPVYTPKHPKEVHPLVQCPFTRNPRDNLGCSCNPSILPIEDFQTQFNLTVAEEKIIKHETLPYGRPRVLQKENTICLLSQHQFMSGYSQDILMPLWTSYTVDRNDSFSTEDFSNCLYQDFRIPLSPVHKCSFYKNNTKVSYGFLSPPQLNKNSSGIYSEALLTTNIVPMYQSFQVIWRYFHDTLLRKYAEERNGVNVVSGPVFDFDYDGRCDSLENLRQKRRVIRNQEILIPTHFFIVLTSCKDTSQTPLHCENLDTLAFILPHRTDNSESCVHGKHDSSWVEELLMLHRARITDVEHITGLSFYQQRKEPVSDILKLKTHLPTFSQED
In words: cell free luciferase based luminescent assay for ENPP1 inhibitors. In kind it is biochemical.

Series [9] concerns C57BL/6 animals subjected to ischemic cardiac injury.
Setting [10] is: myricetin versus vehicle treated injured hearts.
Where [11] appears, read: myricetin versus vehicle, day 3.
Where [12] appears, read: 30 mg/kg myricetin intra-peritoneally daily for 14 days.
[13] abbreviates: 30 mg/kg myricetin intra-peritoneally daily for 14 days, day 7 after injury, n=15.
[14] abbreviates: uridine continuous infusion for 14 days.
Setting [15] is: uridine continuous infusion for 14 days, day 7 after injury, mean±S.E.M., n=15.

Where two headings read alike, the source gives them in different places.

As to `C[C@H](Nc1cc(Cl)nc2c1cnn2[C@@H]1O[C@H](COP(=O)(O)CP(=O)(O)O)[C@@H](O)[C@H]1O)c1ccccc1F` [AB680], in series [1], the “cardiac fibroblast cell death by conditioned medium of cardiomyocytes treated with AMP plus inhibitor” value is listed as “significantly increases cardiac fibroblast cell death”.

On to `Nc1ncnc2nc(-c3ccc(N4CCOCC4)nc3)cc(-c3cccc(Br)c3)c12` [ABT-702], for which the “cardiac fibroblast cell death by conditioned medium of cardiomyocytes treated with AMP plus inhibitor” value in series [1] is recorded as “attenuated cell death”.

In the case of `Nc1ncnc2c1ncn2[C@@H]1O[C@H](COP(=O)(O)O)[C@@H](O)[C@H]1O` [AMP, Adenosine monophosphate], the “cell death of cardiac fibroblasts treated directly with the substance(s)” value (shortened to “cell death … with the substance(s)”) in series [2] is given as “did not induce cell death”. Besides, the “cardiac fibroblast cell death by conditioned medium of cardiomyocytes treated with the substance alone” value in series [1] is given as “caused cell death”.

As to `Nc1ncnc2c1ncn2[C@@H]1O[C@H](COP(=O)(O)CP(=O)(O)O)[C@@H](O)[C@H]1O` [AMP-CP], the “cardiac fibroblast cell death by conditioned medium of cardiomyocytes treated with AMP plus inhibitor” value in series [1] is listed as “significantly increases cardiac fibroblast cell death”.

Turning to `Nc1ncnc2c1ncn2[C@@H]1O[C@H](COP(=O)(O)OP(=O)(O)OP(=O)(O)O)[C@@H](O)[C@H]1O` [ATP], the “reduction in the number of ENPP1 over-expressing cardiac fibroblasts” value in series [3] (ATP added to co-culture with neonatal rat ventricular cardiomyocytes, within 48 hours) amounted to 75%.

Turning to `COc1ccc(-c2nc([C@@H](C)Sc3nc(N)cc(N)n3)c(C)s2)cc1OCCN1CCOCC1` [DI-87], the “rescue by deoxycytidine of ENPP1+ATP conditioned medium induced cell death in presence of deoxycytidine kinase inhibitor” value in series [4] is “unable to prevent cell death”.

Turning to `CCNC(=O)[C@H]1O[C@@H](n2cnc3c(N)ncnc32)[C@H](O)[C@@H]1O` [NECA], the “cardiac fibroblast cell death by conditioned medium of cardiomyocytes treated with the substance alone” value in series [1] is reported as “did not cause fibroblast cell death”.

For the compound `O=C(O)c1cc(=O)[nH]c(=O)n1[C@@H]1O[C@H](COP(=O)(O)O)[C@@H](O)[C@H]1O` [OMP, orotidine monophosphate], the “cell death of cardiac fibroblasts treated with adenine and adenosine plus the substance” value in series [2] is listed as “rescue of cell death”. The “cell death of cardiac fibroblasts treated with ENPP1+ATP myocyte conditioned medium in presence of the substance” value (“cell death … of the substance” below) in series [4] is given as “completely rescued cell death”.

Turning to `O=P(O)(O)OP(=O)(O)O` [PPi, pyrophosphate], the “cardiac fibroblast cell death by conditioned medium of cardiomyocytes treated with the substance alone” value in [1] is given as “not”.

As to `Nc1ncnc2nc[nH]c12` [adenine, Adenine], in [2], the “cell death of cardiac fibroblasts after removal of the compound from the set of 7 compounds” value is given as “no cell death” and the “cell death … with the substance(s)” value is reported as “no cell death was observed”.

As to `Nc1ncnc2c1ncn2[C@@H]1O[C@H](CO)[C@@H](O)[C@H]1O` [adenosine, Adenosine], the “cardiac fibroblast cell death by conditioned medium of cardiomyocytes treated with the substance alone” value in series [1] is on record as “unable to induce cell death”.

`Cc1c(-c2ccc(-c3ccccc3F)cc2)nc2ccc(F)cc2c1C(=O)O` [brequinar]: the “cell death … with the substance(s)” value in [2] is given as “cardiac fibroblast cell death”.

For `Nc1ccn([C@H]2C[C@H](O)[C@@H](CO)O2)c(=O)n1` [deoxycytidine], in series [4], the “cell death … of the substance” value is listed as “completely rescued cell death”.

As for `CO[C@@]12[C@H](COC(N)=O)C3=C(C(=O)C(C)=C(N)C3=O)N1C[C@@H]1N[C@@H]12` [mitomycin C], the “cell death … of the substance” value in series [4] was “resistant to cell death”. Moreover, in series [5], the “cell death of mEF treated with ENPP1+ATP myocyte conditioned medium after cell cycle arrest” value was “prevented cell death”.

Take `O=c1c(O)c(-c2cc(O)c(O)c(O)c2)oc2cc(O)cc(O)c12` [myricetin]: the “p53Ser15 phosphorylation in non-myocyte cells” value in [6] is reported as “attenuated”. The “expression of gamma H2A.X in non-myocyte cells” value in [6] (7 days following injury) is given as “attenuated expression”. Besides, the “cell death of cardiac fibroblasts in co-culture after addition of ATP” value in [3] (concomitant addition of myricetin (10 uM)) is on record as “significantly attenuated cell death”. In addition, in series [7] (myricetin versus vehicle injected animals (FIG. 8K legend)), the “carbamoyl aspartate in the hearts” value is recorded as “decreased”. In addition, in [7] (setting [10]), the “carbamoyl phosphate levels in the injured regions of the heart” value was “decrease”, the “level of cytidine in the injured regions of the heart” value is reported as “significant increase” and the “level of uridine in the injured regions of the heart” value was “significant increase”. Moreover, in series [7] (setting [11]), the deoxyuridine in serum entry is listed as “increased” and the orotate in serum entry is on record as “decrease”. Also, the orotidine in serum result in series [7] (myricetin versus vehicle, day 7) is “increased”. In addition, the “cardiac fibroblast cell death with conditioned medium of cardiomyocytes treated with ENPP1+ATP plus substance, versus ENPP1+ATP conditioned medium” value in [1] is “significant reduction in cell death”. Further, in series [8], the “inhibition of ENPP1 enzymatic activity” value is on record as ~99%. Besides, in series [9] (setting [12]), the “fraction of animals with severe fibrosis (>40% of the LV surface area)” value was 15% and the “fraction of animals with severe heart failure (EF<20%)” value is given as 23%. In series [9] (setting [13]), the “LVIDs (ventricular chamber size)” value came to 3.68±0.23, the ejection fraction is recorded as 38.04±3.74% and the fractional shortening is given as 18.67±2.05%. Further, the body weight entry in [9] (mouse, in vivo) is “without any change”. Moreover, in [9] (myricetin, versus vehicle), the capillary density entry is “significant increase” and the ventricular hypertrophy entry is “decreased”. Also, the “area of scarring at the mid ventricular and apical regions” value in series [9] (myricetin, 4 weeks post injury, versus vehicle) is recorded as “significantly reduced”.

Regarding `O=c1ccn([C@@H]2O[C@H](CO)[C@@H](O)[C@H]2O)c(=O)[nH]1` [uridine, Uridine], in [2], the “cell death of cardiac fibroblasts treated with adenine and adenosine plus the substance” value is “rescue of cell death”; the “cell death of cardiac fibroblasts treated with brequinar plus uridine” value is on record as “rescue”; the “cell death of cardiac fibroblasts treated with the 7 compounds together with uridine” value was “cell death was prevented”. In series [4], the “cell death … of the substance” value is “completely rescued cell death”. In addition, in series [9] (setting [14]), the “animals with severe post infarct fibrosis (>40% of LV surface area)” value is given as “none” and the “fraction of animals with severe depression in EF (less than 20%)” value is listed as 13%. For the same compound, the “end systolic ventricular diameters” value in [9] (uridine continuous infusion for 14 days, versus vehicle) was “trend towards better preservation”. In [9] (setting [15]), the “ejection fraction (EF)” value was determined as 37.02±3.12% and the “fractional shortening (FS)” value is reported as 18.01±1.68%. The “heart weight/body weight ratios” value in series [9] (uridine, versus vehicle) is recorded as “decreased”. Moreover, in series [9] (uridine, 4 weeks following injury), the capillary density entry was “significantly increased”. Besides, the “fibrosis measured at the apex and mid ventricle” value in series [9] (uridine, 4 weeks post injury, versus vehicle) was “decreased fibrosis”.
